Entries after “also recorded” stand apart in the source; their conditions may differ.
Legend:
[1] = Solubility / miscibility in water; format: physicochemical
[2] = Stability of halosilane in saturated aqueous salt solution; format: physicochemical; conditions: halosilane added to saturated aqueous salt solution
Experimental: After cooling to room temperature, 25 ml of the saturated salt solution was added to a 50 ml beaker. To this, 1.2 ml of methyltrichlorosilane was slowly added and stirred into the saturated water. […] A piece of maple wood was added to the solution and vigorously stirred. The dissolved methyltrichlorosilane reacted with the wood and produced hydrochloric acid (HCl) gas as a by-product. There was a slight exotherm observed. After 2 minutes, the wood was removed from the water solution and air-dried. […] The water remained tightly beaded up and gradually evaporated after 30 minutes.

SMILES | miscibility with water [1] | reaction with water of the saturated salt solution [2]
CCCCCCCC[Si](OCC)(OCC)OCC [n-octyltriethoxysilane] | not very miscible at any concentration | –
C[Si](Cl)(Cl)Cl [methyltrichlorosilane] | – | did not react with the water; also recorded: no reaction; also recorded: No exotherm or reaction was observed
CO[Si](C)(OC)OC [methyltrimethoxysilane] | readily miscible with water | –

— patent US9605384B2, “Hydrophobic paper, cardboard, and packaging” (STL SUSTAINABLE TECHNOLOGIES, LLC, priority 2010, dated 2017)
